The values that follow come from patent US10004701B2, “Methods and compositions for treating infection” (UNIVERSITY OF ROCHESTER, priority 2012, dated 2018).

Common to all, as to assay: AK assay 384-well format, Prestwick library screening
Experiment [1] deals with S. aureus strain USA300-0114. It counts as cell-based, Staphylococcus aureus. The note with it: 50 μM final drug concentration; for fold induction at 50 µM: Staphylococcus aureus, USA300, 3 h.
For the next experiment, the system named is E. cloacae. It counts as cell-based, Enterobacter cloacae. The note with it: 50 μM final drug concentration; for fold induction at 50 µM: Enterobacter cloacae, 3 h.
A further experiment relates to E. faecium. It counts as cell-based, Enterococcus faecium. The note with it: 50 μM final drug concentration; for fold induction at 50 µM: Enterococcus faecium, 3 h.
For another experiment, the system named is P. aeruginosa. The experiment is classed as cell-based, Pseudomonas aeruginosa. The note with it: 50 μM final drug concentration; for fold induction at 50 µM: Pseudomonas aeruginosa, 3 h.
In a further experiment the test system is E. coli. The experiment is classed as cell-based, Escherichia coli. The note with it: 50 μM final drug concentration; for fold induction at 50 µM: Escherichia coli, 3 h.
In experiment [2] the test system is A. baumannii strain 98-37-09. The experiment is classed as cell-based, Acinetobacter baumannii. The note with it: 50 μM final drug concentration; for fold induction at 50 µM: Acinetobacter baumannii, 983709, 3 h.
The next experiment has as its system K. pneumoniae. The experiment is classed as cell-based, Klebsiella pneumoniae. The note with it: 50 μM final drug concentration; for fold induction at 50 µM: Klebsiella pneumoniae, 3 h.
Where [3] appears, read: 384-well format, cutoff for positive-scoring molecules 3-fold increase.
The mark [4] stands for this setting: planktonic S. aureus, 384-well, cutoff for positive-scoring molecules 3-fold increase, read-out: AK-based Prestwick Library Screening Results: S. aureus (increase in extracellular AK activity).
[5] abbreviates: planktonic E. cloacae, 384-well, cutoff for positive-scoring molecules 3-fold increase, read-out: AK-based Prestwick Library Screening Results: E. cloacae (increase in extracellular AK activity).
Setting [6] is: planktonic E. faecium, 384-well, cutoff for positive-scoring molecules 3-fold increase, read-out: AK-based Prestwick Library Screening Results: E. faecium (increase in extracellular AK activity).
Setting [7] is: planktonic P. aeruginosa, 384-well, cutoff for positive-scoring molecules 3-fold increase, read-out: AK-based Prestwick Library Screening Results: P. aeruginosa (increase in extracellular AK activity).
The mark [8] stands for this setting: planktonic E. coli, 384-well, cutoff for positive-scoring molecules 3-fold increase, read-out: AK-based Prestwick Library Screening Results: E. coli (increase in extracellular AK activity).
Where [9] appears, read: planktonic A. baumannii, 384-well, cutoff for positive-scoring molecules 3-fold increase, read-out: AK-based Prestwick Library Screening Results: A. baumannii (increase in extracellular AK activity).
[10] abbreviates: planktonic K. pneumoniae, 384-well, cutoff for positive-scoring molecules 3-fold increase, read-out: AK-based Prestwick Library Screening Results: K. pneumoniae (increase in extracellular AK activity).
Setting [11] is: cutoff for positive-scoring molecules 3-fold increase, read-out: AK-based Prestwick Library Screening Results, S. aureus (fold increase in extracellular AK activity).
Setting [12] is: cutoff for positive-scoring molecules 3-fold increase, read-out: AK-based Prestwick Library Screening Results, E. cloacae (fold increase in extracellular AK activity).
Where [13] appears, read: cutoff for positive-scoring molecules 3-fold increase, read-out: AK-based Prestwick Library Screening Results, E. faecium (fold increase in extracellular AK activity).
Setting [14] is: cutoff for positive-scoring molecules 3-fold increase, read-out: AK-based Prestwick Library Screening Results, P. aeruginosa (fold increase in extracellular AK activity).
Where [15] appears, read: cutoff for positive-scoring molecules 3-fold increase, read-out: AK-based Prestwick Library Screening Results, E. coli (fold increase in extracellular AK activity).
[16] abbreviates: cutoff for positive-scoring molecules 3-fold increase, read-out: AK-based Prestwick Library Screening Results, A. baumannii (fold increase in extracellular AK activity).
Setting [17] is: cutoff for positive-scoring molecules 3-fold increase, read-out: AK-based Prestwick Library Screening Results, K. pneumoniae (fold increase in extracellular AK activity).

Where a name gives a salt, the structure may show the parent alone. Read-outs that look alike come from different tables or passages of the source.

Consider Cotinine (−), for which the “AK-based Prestwick Library Screening Results, S. aureus (increase in extracellular AK activity)” value in experiment [1] (setting [3]) is recorded as 0.4. Also, in the experiment with E. cloacae (setting [3]), the “AK-based Prestwick Library Screening Results, E. cloacae (increase in extracellular AK activity)” value came to 0.3. Further, the “AK-based Prestwick Library Screening Results, E. faecium (increase in extracellular AK activity)” value in the experiment on E. faecium (setting [3]) was found to be 0.8. Also, the “AK-based Prestwick Library Screening Results, P. aeruginosa (increase in extracellular AK activity)” value with P. aeruginosa (setting [3]) is given as 0.3. Besides, in the experiment on E. coli (384-well format, […]), the “AK-based Prestwick Library Screening Results, E. coli (increase in extracellular AK activity)” value worked out at 0.5. The “AK-based Prestwick Library Screening Results, A. baumannii (increase in extracellular AK activity)” value in experiment [2] (setting [3]) is listed as 0.3. For the same molecule, the “AK-based Prestwick Library Screening Results, K. pneumoniae (increase in extracellular AK activity)” value in the experiment on K. pneumoniae (setting [3]) is recorded as 0.4.
Turning to `O=c1[nH]c2ccccc2n1C1CCN(CCCC(c2ccc(F)cc2)c2ccc(F)cc2)CC1` [Pimozide], the fold induction at 50 µM in experiment [1] (setting [4]) is 2.3; in the experiment with E. cloacae (setting [5]) it was 1.2; in the experiment with E. faecium (setting [6]) it was 1.3; in the experiment on P. aeruginosa (setting [7]), 1.3; with E. coli (setting [8]) it was 1.7; in experiment [2] (setting [9]), 8.7. For the same molecule, the fold induction at 50 µM with K. pneumoniae (setting [10]) came out at 1.3.
`O=C(NCC(O)CO)c1c(I)c(C(=O)NCC(O)CO)c(I)c(N(CCO)C(=O)CO)c1I` (stereo not drawn) [Ioversol]: the fold induction at 50 µM in experiment [1] (setting [11]) was 1.2; with E. cloacae (setting [12]), 1.4; in the experiment with E. faecium (setting [13]), 1; in the experiment with P. aeruginosa (setting [14]) it was 1.2; in the experiment on E. coli (setting [15]), 1.2; in experiment [2] (setting [16]) it was 1.3. Besides, the fold induction at 50 µM in the experiment with K. pneumoniae (setting [17]) was determined as 1.2.
Regarding `COP(=O)(OC)C(O)C(Cl)(Cl)Cl` (stereo not drawn) [Trichlorfon], the fold induction at 50 µM in experiment [1] (planktonic S. aureus, 384-well, […], read-out: AK-based Prestwick Library Screening Results: S. aureus (increase in extracellular AK activity)) was 1.1; with E. cloacae (planktonic E. cloacae, 384-well, […], read-out: AK-based Prestwick Library Screening Results: E. cloacae (increase in extracellular AK activity)), 1.5; in the experiment on E. faecium (planktonic E. faecium, 384-well, […], read-out: AK-based Prestwick Library Screening Results: E. faecium (increase in extracellular AK activity)) it was 0.8; in the experiment on P. aeruginosa (planktonic P. aeruginosa, 384-well, […], read-out: AK-based Prestwick Library Screening Results: P. aeruginosa (increase in extracellular AK activity)) it was 1; in the experiment on E. coli (planktonic E. coli, 384-well, […], read-out: AK-based Prestwick Library Screening Results: E. coli (increase in extracellular AK activity)), 1.2; in experiment [2] (planktonic A. baumannii, 384-well, […], read-out: AK-based Prestwick Library Screening Results: A. baumannii (increase in extracellular AK activity)), 0.9. Also, the fold induction at 50 µM with K. pneumoniae (planktonic K. pneumoniae, 384-well, […], read-out: AK-based Prestwick Library Screening Results: K. pneumoniae (increase in extracellular AK activity)) was found to be 1.1.
For `CN1C(=O)OC(C)(C)C1=O` [Trimethadione], the fold induction at 50 µM in experiment [1] (planktonic S. aureus, cutoff for positive-scoring molecules 3-fold increase, read-out: AK-based Prestwick Library Screening Results, S. aureus (increase in extracellular AK activity)) was found to be 0.7; in the experiment on E. cloacae (planktonic E. cloacae, cutoff for positive-scoring molecules 3-fold increase, read-out: AK-based Prestwick Library Screening Results, E. cloacae (increase in extracellular AK activity)), 1.4; in the experiment with E. faecium (planktonic E. faecium, cutoff for positive-scoring molecules 3-fold increase, read-out: AK-based Prestwick Library Screening Results, E. faecium (increase in extracellular AK activity)), 0.9; in the experiment on P. aeruginosa (planktonic P. aeruginosa, cutoff for positive-scoring molecules 3-fold increase, read-out: AK-based Prestwick Library Screening Results, P. aeruginosa (increase in extracellular AK activity)), 0.8; in the experiment with E. coli (planktonic E. coli, cutoff for positive-scoring molecules 3-fold increase, read-out: AK-based Prestwick Library Screening Results, E. coli (increase in extracellular AK activity)) it was 1; in experiment [2] (planktonic A. baumannii, cutoff for positive-scoring molecules 3-fold increase, read-out: AK-based Prestwick Library Screening Results, A. baumannii (increase in extracellular AK activity)), 0.9. Moreover, in the experiment with K. pneumoniae (planktonic K. pneumoniae, cutoff for positive-scoring molecules 3-fold increase, read-out: AK-based Prestwick Library Screening Results, K. pneumoniae (increase in extracellular AK activity)), the fold induction at 50 µM was 0.7.
Take `COc1cc2nc(N3CCN(C(=O)C4COc5ccccc5O4)CC3)nc(N)c2cc1OC` (stereo not drawn) [Doxazosin mesylate]: the fold induction at 50 µM in experiment [1] (setting [11]) was found to be 1.2; in the experiment on E. cloacae (setting [12]), 1.5; with E. faecium (setting [13]) it was 1.1; in the experiment with P. aeruginosa (setting [14]), 1.1; in the experiment with E. coli (setting [15]), 1.4; in experiment [2] (setting [16]), 1.3. Besides, in the experiment on K. pneumoniae (setting [17]), the fold induction at 50 µM stood at 0.9.
For the molecule `COc1ccc(C2CNC(=O)C2)cc1OC1CCCC1` (stereo not drawn) [Rolipram], the fold induction at 50 µM in experiment [1] (setting [11]) was determined as 1.3; in the experiment on E. cloacae (setting [12]), 1.7; with E. faecium (setting [13]), 1; in the experiment on P. aeruginosa (setting [14]) it was 1.2; in the experiment with E. coli (setting [15]), 1.1; in experiment [2] (setting [16]), 1.2. For the same molecule, in the experiment on K. pneumoniae (setting [17]), the fold induction at 50 µM worked out at 1.
For the molecule `O=C(O)c1ccccc1C(=O)Nc1ccc(S(=O)(=O)Nc2nccs2)cc1` [Phthalylsulfathiazole], the fold induction at 50 µM was found to be 1.4 in experiment [1] (setting [11]); 1.2 in the experiment with E. cloacae (setting [12]); 1 with E. faecium (setting [13]); 1 in the experiment with P. aeruginosa (setting [14]); 1.4 with E. coli (setting [15]); 1.4 in experiment [2] (setting [16]). Besides, the fold induction at 50 µM with K. pneumoniae (setting [17]) was determined as 1.
As for `CCN(CC)CCNC(=O)COc1ccc(OC)cc1` [Mefexamide hydrochloride], the fold induction at 50 µM in experiment [1] (setting [4]) is 0.9; with E. cloacae (setting [5]), 1.3; in the experiment on E. faecium (setting [6]), 1; with P. aeruginosa (setting [7]), 1.1; in the experiment with E. coli (setting [8]), 1.2; in experiment [2] (setting [9]) it was 1. For the same molecule, in the experiment on K. pneumoniae (setting [10]), the fold induction at 50 µM is 0.9.
